Test results from paper PMC8948292, “Combining PEGylated mito-atovaquone with MCT and Krebs cycle redox inhibitors as a potential strategy to abrogate tumor cell proliferation” (Scientific Reports, 2022).
Like-named read-outs stand apart in the source and are kept apart here.

Assays:
MiaPaCa-2 cells [1] = assay: Cell proliferation (cell confluence), IncuCyte Live-Cell Analysis System; assay type: cell-based, human; conditions: for IC50: Homo sapiens; for Cell confluence (% of control): control ~90% confluence
In short: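 MiaPaCa-2 cells in DMEM with 10% FBS, plated at 1,000 cells/well in triplicate and adhered overnight, then treated with Mito-PEG-ATO analogs. Confluence imaged label-free over several days, increase in percent confluence serving as proliferation surrogate.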

MiaPaCa-2 cells [2] = assay: Intracellular ATP, luciferase-based assay; assay type: cell-based, human
Method: After seeding cells overnight at 2 × 10^4 per well in 96-well plates, cells were treated for 24 h. Intracellular ATP levels were determined in cell lysates using a luciferase-based assay per the manufacturer’s instructions (cat# FLAA, Sigma Aldrich, St. Louis, MO). In brief, the assay starts by rapidly adding an ATP assay mix solution (luciferase and luciferin solution, cat# FLAAM) to cell lysates. This is swirled briskly to mix, and the amount of light produced is immediately measured with a luminometer. The results were normalized to the total protein level measured in each well, as determined by the Bradford method (Bio-Rad Laboratories, Hercules, CA).

[3] = target: mitochondrial complex III (MiaPaCa-2 cells) (Homo sapiens, UniProt P00156); assay: Complex III-dependent oxygen consumption in permeabilized cells, Seahorse XF-96; assay type: cell-based
In short: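 MiaPaCa-2 cells were treated 24 h with Mito-PEG-ATO analogs, and OCR was read on a Seahorse XF-96; basal respiration was taken in intact cells. For complex I, permeabilized cells received 10 mM pyruvate, 1.5 mM malate and 10 mM malonate; for complex III, 0.5 mM duroquinol, 1 µM rotenone and 10 mM malonate, both in mannitol/sucrose buffer. IC50 values were derived from the OCR data.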

Sequence of mitochondrial complex III (MiaPaCa-2 cells) (P00156 whole entry): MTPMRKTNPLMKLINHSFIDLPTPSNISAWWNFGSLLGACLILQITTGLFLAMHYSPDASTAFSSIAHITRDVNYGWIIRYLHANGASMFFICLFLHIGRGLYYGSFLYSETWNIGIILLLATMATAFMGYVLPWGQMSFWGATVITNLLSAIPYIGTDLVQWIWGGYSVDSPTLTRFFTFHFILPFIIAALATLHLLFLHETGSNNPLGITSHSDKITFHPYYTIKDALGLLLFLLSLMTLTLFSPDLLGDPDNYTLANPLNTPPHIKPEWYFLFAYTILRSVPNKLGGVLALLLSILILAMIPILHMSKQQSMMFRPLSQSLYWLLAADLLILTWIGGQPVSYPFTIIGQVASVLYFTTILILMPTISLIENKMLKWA
Sequence of mitochondrial complex III (MiaPaCa-2 cells) (P47985 whole entry partner): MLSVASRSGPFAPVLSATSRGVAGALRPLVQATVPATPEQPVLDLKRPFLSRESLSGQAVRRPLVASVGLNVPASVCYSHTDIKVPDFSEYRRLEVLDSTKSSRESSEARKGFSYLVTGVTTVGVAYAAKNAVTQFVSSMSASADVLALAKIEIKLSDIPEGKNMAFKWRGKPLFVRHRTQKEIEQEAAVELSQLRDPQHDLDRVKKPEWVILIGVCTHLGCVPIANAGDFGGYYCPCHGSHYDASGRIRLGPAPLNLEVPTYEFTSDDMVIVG

## O=C1C(OCCOCCOCCOCCOCC[P+](c2ccccc2)(c2ccccc2)c2ccccc2)=C([C@H]2CC[C@H](c3ccc(Cl)cc3)CC2)C(=O)c2ccccc21.[Br-] [Mito-PEG5-ATO, [14-((3-(trans-4-(4-chlorophenyl)cyclohexyl)-1,4-dioxo-1,4-dihydronaphthalen-2-yl)oxy)-3,6,9,12-tetraoxatetradecyl]triphenylphosphonium bromide]
MiaPaCa-2 cells [1]; MIA PaCa-2, read-out: IC50, antiproliferative
  IC50: 38 nM
MiaPaCa-2 cells [1]; MiaPaCa-2 cells, 0.003 µM
  Cell confluence (% of control): 94.98 % of control
MiaPaCa-2 cells [1]; MiaPaCa-2 cells, 0.01 µM
  Cell confluence (% of control): 93.81 % of control
MiaPaCa-2 cells [1]; MiaPaCa-2 cells, 0.03 µM
  Cell confluence (% of control): 74.87 % of control
MiaPaCa-2 cells [1]; MiaPaCa-2 cells, 0.05 µM
  Cell confluence (% of control): 41.88 % of control
MiaPaCa-2 cells [1]; MiaPaCa-2 cells, 0.1 µM
  Cell confluence (% of control): 7.64 % of control
MiaPaCa-2 cells [1]; MiaPaCa-2 cells, 0.2 µM
  Cell confluence (% of control): 4.52 % of control
MiaPaCa-2 cells [1]; MiaPaCa-2 cells, 0.3 µM
  Cell confluence (% of control): 4.07 % of control
MiaPaCa-2 cells [1]; MiaPaCa-2 cells, 0.5 µM
  Cell confluence (% of control): 3.75 % of control
MiaPaCa-2 cells [1]; MiaPaCa-2 cells, 1 µM
  Cell confluence (% of control): 3.53 % of control
MiaPaCa-2 cells [1]; MiaPaCa-2 cells, 3 µM
  Cell confluence (% of control): 2.64 % of control
MiaPaCa-2 cells [1]; MiaPaCa-2 cells, 10 µM
  Cell confluence (% of control): 2.40 % of control
MiaPaCa-2 cells [2]; MiaPaCa-2 cells, 24 h, alone and with AZD-3965 or syrosingopine
  Intracellular ATP levels: not due to intracellular ATP depletion
MiaPaCa-2 cells [2]; Mito-PEG5-ATO 0.02 µM, AZD-3965 0 µM, 24 h
  intracellular ATP level: 34.79 nmol ATP/mg protein
MiaPaCa-2 cells [2]; Mito-PEG5-ATO 0.02 µM, syrosingopine 0 µM, 24 h
  intracellular ATP level: 33.08 nmol ATP/mg protein
MiaPaCa-2 cells [2]; Mito-PEG5-ATO 0.04 µM, AZD-3965 0 µM, 24 h
  intracellular ATP level: 29.69 nmol ATP/mg protein
MiaPaCa-2 cells [2]; Mito-PEG5-ATO 0.04 µM, syrosingopine 0 µM, 24 h
  intracellular ATP level: 29.16 nmol ATP/mg protein
MiaPaCa-2 cells [2]; Mito-PEG5-ATO 0.06 µM, AZD-3965 0 µM, 24 h
  intracellular ATP level: 29.11 nmol ATP/mg protein
MiaPaCa-2 cells [2]; Mito-PEG5-ATO 0.06 µM, syrosingopine 0 µM, 24 h
  intracellular ATP level: 28.90 nmol ATP/mg protein
MiaPaCa-2 cells [2]; Mito-PEG5-ATO 0.08 µM, AZD-3965 0 µM, 24 h
  intracellular ATP level: 28.15 nmol ATP/mg protein
MiaPaCa-2 cells [2]; Mito-PEG5-ATO 0.08 µM, syrosingopine 0 µM, 24 h
  intracellular ATP level: 27.83 nmol ATP/mg protein
MiaPaCa-2 cells [2]; Mito-PEG5-ATO 0.1 µM, AZD-3965 0 µM, 24 h
  intracellular ATP level: 27.57 nmol ATP/mg protein
MiaPaCa-2 cells [2]; Mito-PEG5-ATO 0.1 µM, syrosingopine 0 µM, 24 h
  intracellular ATP level: 27.64 nmol ATP/mg protein
MiaPaCa-2 cells [2]; Mito-PEG5-ATO 0.15 µM, AZD-3965 0 µM, 24 h
  intracellular ATP level: 28.14 nmol ATP/mg protein
MiaPaCa-2 cells [2]; Mito-PEG5-ATO 0.15 µM, syrosingopine 0 µM, 24 h
  intracellular ATP level: 28.11 nmol ATP/mg protein
MiaPaCa-2 cells [2]; Mito-PEG5-ATO 0.5 µM, AZD-3965 0 µM, 24 h
  intracellular ATP level: 26.75 nmol ATP/mg protein
MiaPaCa-2 cells [2]; Mito-PEG5-ATO 0.5 µM, syrosingopine 0 µM, 24 h
  intracellular ATP level: 26.12 nmol ATP/mg protein
[3]; 0.003 µM
  Complex III activity (OCR, % of control): 94.9 % of control
[3]; 0.01 µM
  Complex III activity (OCR, % of control): 94.3 % of control
[3]; 0.03 µM
  Complex III activity (OCR, % of control): 84.2 % of control
[3]; 0.05 µM
  Complex III activity (OCR, % of control): 89.9 % of control
[3]; 0.075 µM
  Complex III activity (OCR, % of control): 89.1 % of control
[3]; 0.1 µM
  Complex III activity (OCR, % of control): 87.5 % of control
[3]; 0.3 µM
  Complex III activity (OCR, % of control): 61.6 % of control
[3]; 0.5 µM
  Complex III activity (OCR, % of control): 38.4 % of control
[3]; 1 µM
  Complex III activity (OCR, % of control): 17.8 % of control
[3]; 3 µM
  Complex III activity (OCR, % of control): 8.0 % of control
[3]; MiaPaCa-2 cells, 24 h treatment, antimycin A-inhibitable OCR, read-out: IC50, complex III-induced oxygen consumption (Complex III activity)
  IC50: 390 nM

## Cc1[nH]nc(C(F)(F)F)c1Cc1sc2c(c1C(=O)N1C[C@](C)(O)CO1)c(=O)n(C)c(=O)n2C(C)C [AZD-3965]
MiaPaCa-2 cells [1]; MIA PaCa-2, read-out: IC50 (cell proliferation) without Mito-PEG5-ATO
  IC50: 278000 nM
MiaPaCa-2 cells [1]; MiaPaCa-2 cells, combined with Mito-PEG5-ATO
  Inhibition of cell proliferation in combination with Mito-PEG5-ATO (combination index): synergistic
MiaPaCa-2 cells [1]; MiaPaCa-2 cells, heat map Fig. 7d
  % changes of IC50 with vs without Mito-PEG5-ATO: 52.5%
MiaPaCa-2 cells [2]; AZD-3965 10 µM, Mito-PEG5-ATO 0 µM, 24 h treatment, mean n=4
  intracellular ATP level: 28.98 nmol ATP/mg protein
MiaPaCa-2 cells [2]; AZD-3965 20 µM, Mito-PEG5-ATO 0 µM, 24 h treatment, mean n=4
  intracellular ATP level: 29.42 nmol ATP/mg protein
MiaPaCa-2 cells [2]; AZD-3965 30 µM, Mito-PEG5-ATO 0 µM, 24 h treatment, mean n=4
  intracellular ATP level: 28.90 nmol ATP/mg protein
MiaPaCa-2 cells [2]; AZD-3965 40 µM, Mito-PEG5-ATO 0 µM, 24 h treatment, mean n=4
  intracellular ATP level: 30.34 nmol ATP/mg protein
MiaPaCa-2 cells [2]; AZD-3965 60 µM, Mito-PEG5-ATO 0 µM, 24 h treatment, mean n=4
  intracellular ATP level: 30.77 nmol ATP/mg protein
MiaPaCa-2 cells [2]; AZD-3965 80 µM, Mito-PEG5-ATO 0 µM, 24 h treatment, mean n=4
  intracellular ATP level: 30.40 nmol ATP/mg protein
MiaPaCa-2 cells [2]; AZD-3965 100 µM, Mito-PEG5-ATO 0 µM, 24 h treatment, mean n=4
  intracellular ATP level: 31.41 nmol ATP/mg protein
MiaPaCa-2 cells [2]; AZD-3965 150 µM, Mito-PEG5-ATO 0 µM, 24 h treatment, mean n=4
  intracellular ATP level: 32.36 nmol ATP/mg protein
MiaPaCa-2 cells [2]; AZD-3965 200 µM, Mito-PEG5-ATO 0 µM, 24 h treatment, mean n=4
  intracellular ATP level: 30.51 nmol ATP/mg protein
MiaPaCa-2 cells [2]; AZD-3965 400 µM, Mito-PEG5-ATO 0 µM, 24 h treatment, mean n=4
  intracellular ATP level: 31.60 nmol ATP/mg protein
MiaPaCa-2 cells [2]; AZD-3965 600 µM, Mito-PEG5-ATO 0 µM, 24 h treatment, mean n=4
  intracellular ATP level: 31.63 nmol ATP/mg protein
[3]; MiaPaCa-2 cells, with Mito-PEG5-ATO
  Effect on the decrease in complex III-induced oxygen consumption induced by Mito-PEG5-ATO: Neither AZD-3965 nor V-9302 significantly affected
